{"source": "patent US11691962B2", "about": "(eXIthera Pharmaceuticals, Inc., priority 2018, dated 2023)", "key": {"human plasma protein": {"system": "human plasma protein", "assay": "Plasma protein binding by equilibrium dialysis", "assay_type": "in vitro ADME", "conditions": "pooled human plasma, 10 μM, 4 hours at 37° C.", "in_short": "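Pooled mixed-gender human plasma spiked with compound at 10 μM was dialysed against PBS pH 7.4 for 4 h at 37°C. Both compartments were quantified by HPLC-MS/MS, and % bound was calculated from plasma vs buffer peak areas.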"}, "Caco-2 cells": {"system": "Caco-2 cells", "assay": "Caco-2 cell permeability assay", "assay_type": "in vitro ADME, human", "conditions": "Papp, 10 μM, 37° C.", "in_short": "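Caco-2 monolayers (days 21-25 post-seeding) received 10 μM compound in HBSS-MES pH 6.5 or HBSS-HEPES pH 7.4 (1% DMSO) at 37 °C, for 60 min A-B or 40 min B-A. Donor and receiver samples were quantified by HPLC-MS/MS (SRM), and Papp and recovery were calculated.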"}, "beagle dog hepatocytes": {"system": "beagle dog hepatocytes", "assay": "Metabolic stability in dog hepatocytes", "assay_type": "in vitro ADME", "conditions": "2 μM compound", "in_short": "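Pooled cryopreserved beagle hepatocytes at 500,000 cells/mL in Krebs-Henseleit buffer with 2 μM compound, 37 °C, 5% CO2, sampled out to 180 min. Acetonitrile-quenched samples analysed by LC-MS/MS; percent remaining from peak area versus time zero.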"}}, "data": [{"substance": "(2S,3R)-3-((2-amino-6-methylpyridin-4-yl)methyl)-N2-(1-methyl-1H-imidazol-2-yl)-N1-((R)-1-(3-fluorophenyl)propyl)-N2-methyl-4-oxoazetidine-1,2-dicarboxamide [Compound 1-120]", "values": [{"measurement": "PPB (%)", "setting": "human plasma protein", "value": "Z (“Z” indicates 50-90%)"}, {"measurement": "Caco-2 Permeability (A-B)", "setting": "Caco-2 cells; apical to basolateral, 60 min", "value": "P (“P” indicates < 10 × 10^−6 cm/s)"}, {"measurement": "Caco-2 Permeability (B-A)", "setting": "Caco-2 cells; basolateral to apical, 40 min", "value": "Q (“Q” indicates 11-30 × 10^−6 cm/s)"}, {"measurement": "Dog Hepatocyte Stability (t1/2)", "setting": "beagle dog hepatocytes", "value": "N (“N” indicates > 240 min)"}]}]}
